Data reported in patent US7657076B2, “Characterizing biological stimuli by response curves” (Cytokinetics, Inc., priority 2001, dated 2010).

Legend:
microtubule assembly = conditions: review of the literature; cited from earlier work
[1] = tested on: HUVEC, A498, A548, SF268, SKOV3, and DU145; experiment: Multivariate quantitative phenotype dose response by image analysis (tubulin feature); type: cell-based, human
Excerpt: As indicated, phenotypic vectors for given stimuli and level combinations may include multivariate information taken from different cell lines. However, this need not be the case, as all the multivariate data of interest may be obtained from a single cell line. Generally, a researcher will chose one or a range of cell lines that are relevant to the area of interest. For example, if the researcher focuses on oncology applications, the cell lines chosen may include different types of cancers and possibly other cells lines that allow one to identify typical side effects of anti cancer drugs. In one specific embodiment pertaining to oncology, six different cell lines are considered. These include HUVEC (human umbilical vein endothelial cells), A498, A548, SF268, SKOV3, and DU145.
In a more specific embodiment, the parameter set for each dose/compound point in a response path includes parameters derived from DNA markers, Golgi markers, and tubulin markers. […] The size of the nuclei as derived from a DNA marker. […]
The data points are presented within the first three principal components obtained for the entire data set. […] The specific features and cell lines used to construct the quantitative phenotypes shown as points in the plot are set forth above in the “Multivariate Phenotypic Data from Images” and “Selecting Experiments for Providing Response Paths” sections. […]

C=C1[C@@H](C)[C@H]2[C@H](Cc3ccccc3)NC(=O)[C@]23OC(=O)/C=C/C(=O)CCC[C@@H](C)C/C=C/[C@H]3[C@@H]1O [Cytochalasin A]
effect on microtubule assembly (microtubule assembly): interferes with microtubule assembly by reacting with sulfhydryl groups | change in tubulin biological features with increasing concentration ([1]; all cell lines, eight concentrations): lack of an increase in the tubulin features | affinity of the microtubule side effect compared with affinity for actin ([1]; inferred from common PCA trajectory at lower concentrations): lower affinity
